# Legend:
# NCI-H226 = test: cells; conditions: Homo sapiens, NCI-H226, 48 h
# MDA-MB-468 = test: cells; conditions: Homo sapiens, MDA-MB-468, 48 h
# OVCAR-4 = test: cells; conditions: Homo sapiens, OVCAR-4, 48 h
# MDA-MB-231/ATCC = test: cells; conditions: Homo sapiens, MDA-MB-231, 48 h
# SN12C = test: cells; conditions: Homo sapiens, 48 h
# NCI-H460 = test: cells; conditions: Homo sapiens, NCI-H460, 48 h
# HL-60(TB) = test: cells; conditions: Homo sapiens, HL-60, 48 h
# HCT-15 = test: cells; conditions: Homo sapiens, HCT-15, 48 h
# UACC-257 = test: cells; conditions: Homo sapiens, UACC-257, 48 h
# OVCAR-5 = test: cells; conditions: Homo sapiens, OVCAR-5, 48 h
# A498 = test: cells; conditions: Homo sapiens, A498, 48 h
# KM12 = test: cells; conditions: Homo sapiens, KM12, 48 h
# T-47D = test: cells; conditions: Homo sapiens, T47D, 48 h
# MOLT-4 = test: cells; conditions: Homo sapiens, MOLT-4, 48 h
# MCF7 = test: cells; conditions: Homo sapiens, MCF7, 48 h
# NCI-H522 = test: cells; conditions: Homo sapiens, NCI-H522, 48 h
# COLO 205 = test: cells; conditions: Homo sapiens, COLO 205, 48 h
# SF-539 = test: cells; conditions: Homo sapiens, SF-539, 48 h
# SK-OV-3 = test: cells; conditions: Homo sapiens, SK-OV-3, 48 h
# HT29 = test: cells; conditions: Homo sapiens, HT-29, 48 h
# RPMI-8226 = test: cells; conditions: Homo sapiens, RPMI-8226, 48 h
# SK-MEL-5 = test: cells; conditions: Homo sapiens, SK-MEL-5, 48 h
# SF-295 = test: cells; conditions: Homo sapiens, SF-295, 48 h
# HCT-116 = test: cells; conditions: Homo sapiens, HCT-116, 48 h
# HOP-92 = test: cells; conditions: Homo sapiens, HOP-92, 48 h
# SK-MEL-2 = test: cells; conditions: Homo sapiens, SK-MEL-2, 48 h
# LOX IMVI = test: cells; conditions: Homo sapiens, 48 h
# 786-0 = test: cells; conditions: Homo sapiens, 786-0, 48 h
# SNB-75 = test: cells; conditions: Homo sapiens, SNB-75, 48 h
# TK-10 = test: cells; conditions: Homo sapiens, TK-10, 48 h
# DU-145 = test: cells; conditions: Homo sapiens, DU-145, 48 h
# 60 cancer cell lines = test: NCI-60 one-dose screen (10 μM); assay type: cell-based; conditions: Homo sapiens; one dose of 10 μM, mean over 60 cancer cell lines; read-out: Mean Growth Percent (MGP)
# Excerpt: Additionally, the mean of the growth percentages (MGP) of each compound against all the 60 cancer cell lines is also reported, which is used as one of the selection criteria to continue with tests at five concentration doses.
# UO-31 = test: cells; conditions: Homo sapiens, UO-31, 48 h
# NCI-H23 = test: cells; conditions: Homo sapiens, NCI-H23, 48 h
# A549/ATCC = test: cells; conditions: Homo sapiens, A549, 48 h
# M14 = test: cells; conditions: Homo sapiens, M14, 48 h
# U251 = test: cells; conditions: Homo sapiens, U-251, 48 h
smiles,measurement,setting,value
COc1cc(/C=C/C(=O)c2cc(OC)c(OC)c(OC)c2)ccc1Oc1nc(Nc2ccc(F)cc2)nc(N(C)C)n1 [21d],GI50,NCI-H226,1.44 µM
same,CC50,NCI-H226; read-out: LC50,7.24 µM
same,GI50,MDA-MB-468,1.35 µM
same,CC50,MDA-MB-468; read-out: LC50,9.11 µM
same,GI50,OVCAR-4,2.07 µM
same,CC50,OVCAR-4; read-out: LC50,> 100 µM
same,GI50,MDA-MB-231/ATCC,1.48 µM
same,CC50,MDA-MB-231/ATCC; read-out: LC50,8.63 µM
same,GI50,SN12C,1.23 µM
same,CC50,SN12C; read-out: LC50,6.04 µM
same,GI50,NCI-H460,1.45 µM
same,CC50,NCI-H460; read-out: LC50,7.53 µM
same,GI50,HL-60(TB),2.21 µM
same,CC50,HL-60(TB); read-out: LC50,> 100 µM
same,GI50,HCT-15,1.18 µM
same,CC50,HCT-15; read-out: LC50,6.39 µM
same,GI50,UACC-257,2.83 µM
same,CC50,UACC-257; read-out: LC50,> 100 µM
same,GI50,OVCAR-5,1.48 µM
same,CC50,OVCAR-5; read-out: LC50,11.6 µM
same,GI50,A498,3.99 µM
same,CC50,A498; read-out: LC50,38.9 µM
same,GI50,KM12,3.63 µM
same,CC50,KM12; read-out: LC50,> 100 µM
same,GI50,T-47D,1.87 µM
same,CC50,T-47D; read-out: LC50,> 100 µM
same,GI50,MOLT-4,0.472 µM
same,CC50,MOLT-4; read-out: LC50,> 100 µM
same,GI50,MCF7,1.06 µM
same,CC50,MCF7; read-out: LC50,67 µM
same,GI50,NCI-H522,1.47 µM
same,CC50,NCI-H522; read-out: LC50,7.11 µM
same,GI50,COLO 205,4.45 µM
same,CC50,COLO 205; read-out: LC50,47.5 µM
same,GI50,SF-539,1.64 µM
same,CC50,"SF-539; read-out: LC50, SF-539, 48 h",5.81 µM
same,GI50,SK-OV-3,8.42 µM
same,CC50,SK-OV-3; read-out: LC50,97.4 µM
same,GI50,HT29,1.54 µM
same,CC50,HT29; read-out: LC50,8.22 µM
same,GI50,RPMI-8226,0.751 µM
same,CC50,RPMI-8226; read-out: LC50,> 100 µM
same,GI50,SK-MEL-5,2.16 µM
same,CC50,SK-MEL-5; read-out: LC50,12.2 µM
same,GI50,SF-295,1.98 µM
same,CC50,SF-295; read-out: LC50,19.6 µM
same,GI50,HCT-116,1.4 µM
same,CC50,HCT-116; read-out: LC50,7.24 µM
same,GI50,HOP-92,1.67 µM
same,CC50,HOP-92; read-out: LC50,50.9 µM
same,GI50,SK-MEL-2,1.69 µM
same,CC50,SK-MEL-2; read-out: LC50,8.47 µM
same,GI50,LOX IMVI,0.478 µM
same,CC50,"LOX IMVI; read-out: LC50, LOX IMVI, 48 h",4.11 µM
same,GI50,786-0,1.45 µM
same,CC50,786-0; read-out: LC50,7.19 µM
same,GI50,SNB-75,2.54 µM
same,CC50,SNB-75; read-out: LC50,81.8 µM
same,GI50,TK-10,2.53 µM
same,CC50,TK-10; read-out: LC50,38.1 µM
same,GI50,DU-145,3.99 µM
same,CC50,DU-145; read-out: LC50,67.9 µM
same,activity at 10 µM,60 cancer cell lines,-33.4%
same,GI50,UO-31,1.12 µM
same,CC50,UO-31; read-out: LC50,4.96 µM
same,GI50,NCI-H23,1.63 µM
same,CC50,NCI-H23; read-out: LC50,8.08 µM
same,GI50,A549/ATCC,4.49 µM
same,CC50,A549/ATCC; read-out: LC50,54.7 µM
same,GI50,M14,2.83 µM
same,CC50,M14; read-out: LC50,32.8 µM
same,GI50,"U251; U251, 48 h",0.503 µM
same,CC50,U251; read-out: LC50,9.59 µM

# Reference: paper PMC11012124, “Synthesis of Novel Triazine-Based Chalcones and 8,9-dihydro-7H-pyrimido[4,5-b][1,4]diazepines as Potential Leads in the Search of Anticancer, Antibacterial and Antifungal Agents” (International Journal of Molecular Sciences, 2024)
